Test results: paper PMC5124248, “Antitumor activity of TY-011 against gastric cancer by inhibiting Aurora A, Aurora B and VEGFR2 kinases” (Journal of Experimental & Clinical Cancer Research : CR, 2016)
Where “and” joins values, the source holds several entries; their conditions need not be identical. Equal values may be shown once. Entries after “also recorded” stand apart in the source; their conditions may differ. Marks after values point to notes of the source that are not given here.

Key:
[1] = test system: MGC-803 xenograft tumor tissues; test: TUNEL staining of xenograft tumor tissues; format: in vivo, BALB/c nu/nu mice; conditions: 9 mg/kg
From the text: (§1) Female BALB/c nu/nu mice (5–6 weeks, 16–18 g) were obtained from Sino-British SIPPR/BK Lab. Animal Ltd, Shanghai, China, with the certification number of 2008001638201. The animals were housed in specific pathogen-free (SPF) conditions at Key Laboratory of Brain Functional Genomics, Ministry of Education, and were acclimatized for a week prior to use. Human MGC-803 xenografts were established by subcutaneously inoculating 5 × 10^6 cells into nude mice. When the tumors reached a mean group size of 100 ~ 150 mm^3, the mice were randomized into control and treatment groups to receive treatment accordingly. TY-011 was orally administered at 3, 6 and 9 mg/kg once a day for 13 days. […] The tumor growth was recorded with the measurement of length (L) and width (W) by caliper every other day, and calculated as tumor volume (V) = L × W^2/2. Meanwhile, the body weights of mice were recorded. The tumor volume at day n was expressed as relative tumor volume (RTV) according to the following formula: RTV% = (TVn/TV0) ×100%, where TVn is the tumor volume at day n and TV0 is the tumor volume at day 0. The therapeutic effect of treatment was calculated with formula T/C (%) = mean RTV of the treated group/mean RTV of the control group × 100%. […] The tumor regression of individual mouse was defined as the tumor volume at the end was less than the tumor volume when treatment was initiated. […]

[2] = test system: HUVECs; test: HUVEC tube formation assay; format: cell-based, human; conditions: HUVECs on Matrigel, 6 h
Experimental: HUVECs were seeded onto pre-cooled 96-well tissue culture plate coated with Matrigel™ (BD Biosciences, FranklinLakes, NJ). After the cells attached, the cells were treated by various concentration of TY-011 or equivalent amount of DMSO. The plate was incubated at 37 °C, 5% CO2 humidified atmosphere for 6 h, then cell morphology was captured with a microscopy (Olympus IX73, Tokyo, Japan).

[3] = test system: 5 gastric cancer cell lines; test: CCK-8 cell proliferation assay, panel of 5 gastric cancer cell lines; format: cell-based; conditions: Homo sapiens; range over SNU-16, MKN-45, MGC-803, SGC-7901, AGS; read-out: IC50 values across 5 gastric cancer cell lines
Experimental: (§2) During the logarithmic growth phase, each cell line was seeded in a 96-well tissue culture plate (Thermo Fisher Scientific, Waltham, MA, USA) at a predetermined density in complete medium, attached overnight and treated with compound for the indicated time. The medium was discarded and replaced with 10% CCK-8 (Dojindo, Kumamoto, Japan) in complete medium, then incubated the plates for another 2 h. The OD450 was measured with SpectraMax M5 (Molecular Devices, CA, USA). A background absorbance of ODblank was subtracted from all wells. The survival rate was determined with following formula: Survival rate (%) = ODcompound/ODDMSO × 100%. The IC50 values were calculated by concentration − response curve fitting using the four parameter method.

[4] = test system: SGC-7901 cells; test: Annexin V/PI apoptosis analysis, SGC-7901; format: cell-based, human; conditions: 48 h (14.1% control)
Experimental: Apoptosis was detected by FITC Annexin V Apoptosis Detection Kit I according to the manufacturer’s instructions (Dojindo, Kumamoto, Japan) to determine the phosphatidyl serine exposure. Apoptotic cells were quantified by a flow cytometer (Guava EasyCyte 6HT-2 L, Merck Millipore, Billerica, MA, USA) using the InCyte software. At least 10 000 cells were analyzed for each data point.

[5] = test system: CD31 (angiogenesis marker) in tumor tissues; test: CD31 immunohistochemistry of xenograft tumor tissues; format: in vivo, BALB/c nu/nu mice; conditions: TY-011 treated group vs control group
From the text: as §1

[6] = test system: HUVECs; test: HUVEC growth inhibition, 6 h, CCK-8; format: cell-based, human; conditions: various concentrations
Experimental: as §2

[7] = test system: human MGC-803 xenograft; test: Antitumor activity in vivo, MGC-803 xenograft in nude mice; set-up: species or system BALB/c nu/nu mice; conditions: for Inhibition rate (%): by tumor weight; for Body weight (g) End / Body weight (g) Start / Tumor volume (mm^3) End / Tumor volume (mm^3) Start / Tumor weight: mean ± SEM; for Tumor weight: control 0.79 g
Experimental: The animals were housed in specific pathogen-free (SPF) conditions at Key Laboratory of Brain Functional Genomics, Ministry of Education, and were acclimatized for a week prior to use. […] When the tumors reached a mean group size of 100 ~ 150 mm^3, the mice were randomized into control and treatment groups to receive treatment accordingly. […] The tumor growth was recorded with the measurement of length (L) and width (W) by caliper every other day, and calculated as tumor volume (V) = L × W^2/2. Meanwhile, the body weights of mice were recorded. The tumor volume at day n was expressed as relative tumor volume (RTV) according to the following formula: RTV% = (TVn/TV0) ×100%, where TVn is the tumor volume at day n and TV0 is the tumor volume at day 0. The therapeutic effect of treatment was calculated with formula T/C (%) = mean RTV of the treated group/mean RTV of the control group × 100%. […] The tumor regression of individual mouse was defined as the tumor volume at the end was less than the tumor volume when treatment was initiated.

[8] = 3 mg/kg oral once a day for 13 days
[9] = 6 mg/kg oral once a day for 13 days
[10] = 9 mg/kg oral once a day for 13 days

## CCc1cc2c(cn1)C(c1ccccc1Cl)=Nc1c(n[nH]c1C)N2 [TY-011, 9-(2-chloro-phenyl)-6-ephyl-1-methyl-2,4-dihydro-2,3,4,7,10-pentaaza-benzo[f]azulene]
[1]
  apoptosis in tumor tissues (TUNEL): obvious increase in apoptosis
[2]
  tube meshes (tube formation): disturbed
[3]
  IC50: 0.09 to 0.96 µM
[4]; SGC-7901, 0.25 μM
  apoptotic cells: 17.2%
[4]; SGC-7901, 0.5 μM
  apoptotic cells: 28.4%
[4]; SGC-7901, 1 μM
  apoptotic cells: 54.3%
[5]
  CD31 staining in tumor tissues: much less than control group
[6]
  HUVEC proliferation under tube formation treatment condition: didn’t affect HUVEC proliferation
[7]; [8]
  T/C (%): 54.55%
  TGI (%): 59.41%
  Inhibition rate (%): 64.9%
  Body weight (g) End: 21.8 ± 0.1 g
  Body weight (g) Start: 20.8 ± 0.1 g
  Tumor volume (mm^3) End: 433.6 ± 16.2*** mm^3
  Tumor volume (mm^3) Start: 192.8 ± 7.1 mm^3
  Tumor weight: 0.28 g and 0.28 ± 0.02 g
[7]; [9]
  T/C (%): 21.82%
  TGI (%): 103.77%
  Inhibition rate (%): 87.7%
  Body weight (g) End: 20.3 ± 0.2 g
  Body weight (g) Start: 20.9 ± 0.1 g
  Tumor volume (mm^3) End: 168.8 ± 7.1*** mm^3
  Tumor volume (mm^3) Start: 191.2 ± 6.2 mm^3
  Tumor weight: 0.10 g and 0.10 ± 0.01 g
[7]; 6 mg/kg oral once a day for 13 days, 6/8 mice
  tumor regression (share of mice): 75%
[7]; [10]
  T/C (%): 14.53%
  TGI (%): 113.09%
  Inhibition rate (%): 89.0%
  Body weight (g) End: 21.7 ± 0.1 g
  Body weight (g) Start: 21.4 ± 0.1 g
  Tumor volume (mm^3) End: 111.4 ± 3.6*** mm^3
  Tumor volume (mm^3) Start: 189.0 ± 4.9 mm^3
  Tumor weight: 0.09 g and 0.09 ± 0.01 g
[7]; 9 mg/kg oral once a day for 13 days, 8/8 mice
  tumor regression (share of mice): 100%
[7]; 3, 6 and 9 mg/kg oral once a day for 13 days
  drug-related deaths and body weight of mice: did not affect the body weight of mice; also recorded: did not cause drug-related deaths or any loss in body weight of mice
[7]; mice treated with TY-011, data not shown
  damages to vital organs (heart, liver, spleen, lung and kidney) or clinical signs: no obvious damages to vital organs
